# Test results published in US20260041649A1, “ANTI-INFLAMMATORY AGENT” (WATANABE OYSTER LABORATORY, CO., LTD., priority 2023, published 2026).
# Tests used:
# [1] = tested on: mouse macrophage RAW264.7 cells; experiment: Cell proliferation of RAW264.7 cells (cell count); format: cell-based; conditions: DHMBA 1, 10, 100 or 1000 μM, 1 to 4 days
# Protocol: FIG. 2 is an explanatory diagram describing that the marine factor 3,5-dihydroxy-4-methoxybenzyl alcohol (DHMBA) suppresses the proliferation of mouse macrophage RAW264.7 cells. RAW264.7 cells (1×10^5 cells/ml per well in a 24-well plate) were cultured in a DMEM culture medium containing 10% FBS (fetal bovine serum), 1% P/S (penicillin/streptomycin), and 1% fungizone in a control group (1% ethanol; 0 μM DHMBA as final concentration) and in a DHMBA-treated group (0.1, 1, 10, 100, or 1000 μM) for 1 day (panel A), 2 days (B), 3 days (C), or 4 days (D). After the culture, the number of cells attached to the dish was counted. Data are presented as the mean±SD (standard deviation) from a total of 8 wells in 2 plates using different cell preparations. *: Significant difference (p<0.001) between the control group (gray bars) and the DHMBA-treated group. Statistical analysis was performed using 1-way ANOVA with Tukey-Kramer post-test.
# After the culture, to detach the cells from each well, a Ca^2+/Mg^2+ free PBS solution with 0.05% trypsin/EDTA was added to the culture dish (0.1 ml per well) and incubated at 37° C. for 2 min. […]
# The number of viable cells was counted under a microscope (Olympus MTV-3) using a hemocytometer (Sigma-Aldrich) and a cell counter (H-102P, Line Seiki Co., Ltd., Tokyo, Japan). […]
# [2] = tested on: RAW264.7 cells cultured with LPS; experiment: Cell death of RAW264.7 cells cultured with LPS; format: cell-based, mouse; conditions: DHMBA 1 or 10 μM, LPS 100 ng/ml, 48 hours, subconfluent cells
# Protocol: In FIG. 5A, to examine the effect on cell proliferation, RAW264.7 cells (1×10^5/ml/well) were cultured for 3 days in a DMEM culture medium containing 10% FBS, 1% P/S, and 1% fungizone in the control group (1% ethanol as final concentration) with or without LPS (1, 10, 50, 100, 500 ng/ml). In FIG. 5B, cells (1×10^5/ml per well) were cultured for 3 days in a DMEM culture medium containing 10% FBS, 1% P/S, and 1% fungizone in the DHMBA-treated group (1 or 10 μM) with or without LPS (100 ng/ml). In FIG. 5C, to examine the effect on cell death, cells that had reached subconfluence after 3 days of culture were cultured for another 48 hours in the control group (1% ethanol) with or without LPS (1, 10, 50, 100, or 500 ng/ml). […] After the culture, the number of cells attached to the dish was counted. […]
# In an additional experiment, to determine the effect of DHMBA on RAW264.7 cell death, RAW264.7 cells were cultured in the presence of LPS. […] After the culture, the cells were detached with a Ca^2+/Mg^2+ free PBS solution with 0.05% trypsin/EDTA (0.1 ml per well) as described in the “Cell proliferation assay” section, and the cells were counted as described in the “Cell count” section below. […]
# The number of viable cells was counted under a microscope (Olympus MTV-3) using a hemocytometer (Sigma-Aldrich) and a cell counter (H-102P, Line Seiki Co., Ltd., Tokyo, Japan).
compound,measurement,setting,value
"COc1c(O)cc(CO)cc1O [DHMBA, 3,5-dihydroxy-4-methoxybenzyl alcohol]",proliferation of RAW264.7 cells (number of cells attached to the dish),[1],inhibited
same,effect on RAW264.7 cell death in the presence of LPS,[2],exhibited
